In US20080021012A1, “3-[4-{6-Substituted Alkanoyl Pyridin-3-Yl}-3-Phenyl]-5-(1H-1,2,3-Triazol-1-Ylmethyl)-1,3-Oxazolidin-2-Ones As Antibacterial Agents” (ASTRAZENECA AB, priority 2004, published 2008):
≈ marks a conversion by molar mass, not a printed value. Counter-ions that a name gives are not always drawn.

Assays:
physchem = conditions: pH 7.4, aqueous buffer, thermodynamic from solid
Description: It will be understood that parameters such as solubility may be measured by any suitable technique known in the art.

MAO-A = biological target: T1, MAO-A (Homo sapiens, UniProt P21397); test: MAO-A inhibition, standard in-vitro assay; type: biochemical; conditions: human liver enzyme expressed in yeast
T1 construct: made in house; host or cells: yeast
T1 sequence (P21397 1-527): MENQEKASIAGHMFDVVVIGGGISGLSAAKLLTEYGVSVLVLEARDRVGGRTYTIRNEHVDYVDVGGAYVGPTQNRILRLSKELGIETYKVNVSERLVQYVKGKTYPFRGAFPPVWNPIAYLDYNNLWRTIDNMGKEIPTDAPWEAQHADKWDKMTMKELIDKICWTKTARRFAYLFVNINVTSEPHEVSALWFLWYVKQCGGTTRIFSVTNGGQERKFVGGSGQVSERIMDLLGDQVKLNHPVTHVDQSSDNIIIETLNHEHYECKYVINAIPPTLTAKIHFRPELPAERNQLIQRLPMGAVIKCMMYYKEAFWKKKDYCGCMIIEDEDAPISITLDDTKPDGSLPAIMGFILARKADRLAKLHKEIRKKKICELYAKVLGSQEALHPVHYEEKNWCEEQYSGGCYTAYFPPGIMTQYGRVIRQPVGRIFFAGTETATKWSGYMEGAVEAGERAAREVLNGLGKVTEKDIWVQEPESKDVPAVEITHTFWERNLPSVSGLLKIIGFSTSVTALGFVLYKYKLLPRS
Experimental: Inhibition of mono-amine oxidase (MAO) is a known potential side effect of oxazolidinone antibiotics (see for example WO 03/072575).
The activity of the compounds of the invention against MAO-A was tested using a standard in-vitro assay based on human liver enzyme expressed in yeast as described in Biochem. Biophys. Res. Commun. 1991, 181, 1084-1088. Compounds of the invention typically give Ki values of >5 μM when measured in such an assay as above.

Haemophilus influenzae = test: MIC, Haemophilus influenzae; type: cell-based; conditions: Mueller-Hinton broth with hemin and NAD, 24 hours, 37° C.
Experimental: (§1) The following results were obtained on a standard in-vitro test system. The activity is described in terms of the minimum inhibitory concentration (MIC) determined by the agar-dilution technique with an inoculum size of 10^4 CFU/spot. Typically, compounds are active in the range 0.01 to 256 μg/ml.
(§2) Streptococci and enterococci were tested on agar supplemented with 5% defibrinated horse blood, an inoculum of 10^4 CFU/spot and an incubation temperature of 37° C. in an atmosphere of 5% carbon dioxide for 48 hours—blood is required for the growth of some of the test organisms. Fastidious Gram negative organisms were tested in Mueller-Hinton broth, supplemented with hemin and NAD, grown aerobically for 24 hours at 37° C., and with an innoculum of 5×10^4 CFU/well.

Moraxella catarrhalis = test: MIC, Moraxella catarrhalis; type: cell-based; conditions: Mueller-Hinton broth with hemin and NAD, 24 hours, 37° C.
Experimental: as §1, §2

Streptococcus pneumoniae = test: MIC, agar-dilution, Streptococcus pneumoniae; type: cell-based; conditions: agar with 5% defibrinated horse blood, 37° C., 5% carbon dioxide, 48 hours
Experimental: as §1, §2

[1] = test system: Linezolid Resistant Streptococcus pneumoniae; test: MIC, Linezolid Resistant Streptococcus pneumoniae; type: cell-based
Experimental: as §1, §2

[2] = test system: Staphylococcus aureus MRQR; test: MIC, agar-dilution, Staphylococcus aureus MRQR; type: cell-based; conditions: Staphylococcus aureus MRQR (methicillin resistant and quinolone resistant), 10^4 CFU/spot, 37° C., 24 hours
Experimental: as §1
(§3) Staphylococci were tested on agar, using an inoculum of 10^4 CFU/spot and an incubation temperature of 37° C. for 24 hours—standard test conditions for the expression of methicillin resistance.

[3] = test system: Staphylococcus aureus MSQS; test: MIC, agar-dilution, Staphylococcus aureus MSQS; type: cell-based; conditions: Staphylococcus aureus MSQS (methicillin sensitive and quinolone sensitive), 10^4 CFU/spot, 37° C., 24 hours
Experimental: as §1, §3

melting point | Ki (MAO-A) [nM] | Structure (SMILES) | also measured
78 °C | – | Cc1cn(CC(=O)c2ccc(-c3ccc(N4C[C@H](Cn5ccnn5)OC4=O)cc3F)cn2)c(C)n1 [Example 13, (5R)-3-(4-{6-[(2,4-Dimethyl-1H-imidazol-1-yl)acetyl]pyridin-3-yl}-3-fluorophenyl)-5-(1H-1,2,3-triazol-1-ylmethyl)-1,3-oxazolidin-2-one] | –
> 90 °C (dec.) | – | O=C(c1ccc(-c2ccc(N3C[C@H](Cn4ccnn4)OC3=O)cc2F)cn1)C1CNC1 (as salt: hydrochloride) [Example 9, (5R)-3-{4-[6-(Azetidin-3-ylcarbonyl)pyridin-3-yl]-3-fluorophenyl}-5-(1H-1,2,3-triazol-1-ylmethyl)-1,3-oxazolidin-2-one] | –
– | – | CC(=O)NC[C@H]1CN(c2ccc(-c3ccc(-c4nnn(C)n4)nc3)c(F)c2)C(=O)O1 [Reference Example 4] | solubility thermodynamic (physchem): 35.1 µM (≈ 14.4 µg/mL)
82 to 83 °C | – | CC(C)c1nccn1CC(=O)c1ccc(-c2ccc(N3C[C@H](Cn4ccnn4)OC3=O)cc2F)cn1 [Example 12] | –
> 217 °C (dec.) | – | Cc1cn(CC(=O)c2ccc(-c3ccc(N4C[C@H](Cn5ccnn5)OC4=O)cc3F)cn2)cn1 (as salt: hydrochloride) [Example 5, (5R)-3-(3-Fluoro-4-{6-[(4-methyl-1H-imidazol-1-yl)acetyl]pyridin-3-yl}phenyl)-5-(1H-1,2,3-triazol-1-ylmethyl)-1,3oxazolidin-2-one] | –
> 180 °C (dec.) | 700 | O=Cc1ccc(-c2ccc(N3C[C@H](Cn4ccnn4)OC3=O)cc2F)cn1 [Ref Example 2, 5-{2-Fluoro4-[(5R)-2-oxo-5-(1H-1,2,3-triazol-1-ylmethyl)-1,3-oxazolidin-3-yl]phenyl}pyridine-2-carbaldehyde] | –
77 to 79 °C | – | CCc1nccn1CC(=O)c1ccc(-c2ccc(N3C[C@H](Cn4ccnn4)OC3=O)cc2F)cn1 [Example 14, (5R)-3-(4-{6-[(2-Ethyl-1H-imidazol-1-yl)acetyl]pyridin-3-yl}-3-fluorophenyl)-5-(1H-1,2,3-triazol-1-ylmethyl)-1,3-oxazolidin-2-one] | –
192 °C | 6400 | CC(C)(C)O/N=C/c1ccc(-c2ccc(N3C[C@H](Cn4ccnn4)OC3=O)cc2F)cn1 [Example 3] | –
81 °C | – | CCCc1nccn1CC(=O)c1ccc(-c2ccc(N3C[C@H](Cn4ccnn4)OC3=O)cc2F)cn1 [Example 11] | –
78 to 80 °C | – | COCc1nccn1CC(=O)c1ccc(-c2ccc(N3C[C@H](Cn4ccnn4)OC3=O)cc2F)cn1 [Example 15, (5R)-3-[3-Fluoro-4-(6-{[2-(methoxymethyl)-1H-imidazol-1-yl]acetyl}pyridin-3-yl)phenyl]-5-(1H-1,2,3-triazol-1-ylmethyl)-1,3-oxazolidin-2-one] | –
> 240 °C (dec.) | – | Cc1nccn1CC(=O)c1ccc(-c2ccc(N3C[C@H](Cn4ccnn4)OC3=O)cc2F)cn1 (as salt: hydrochloride) [Example 4] | –
– | – | Cn1nnc(-c2ccc(-c3ccc(N4C[C@H](Cn5ccnn5)OC4=O)cc3F)cn2)n1 [Reference Example 5, (5R)-3-(3-Fluoro-4-(6-(2-methyl-2H-tetrazol-5-yl)pyrid-3-yl)phenyl)-5-(1H-1,2,3-triazol-1-ylmethyl)-1,3-oxazolidin-2-one] | solubility thermodynamic (physchem): < 7.1 µM
– | 15000 | O=C(CCCN1CCOCC1)c1ccc(-c2ccc(N3C[C@H](Cn4ccnn4)OC3=O)cc2F)cn1 [Example 2, (5R)-3-{3-Fluoro-4-[6-(4-morpholin-4-ylbutanoyl)pyridin-3-yl]phenyl}-5-(1H-1,2,3-triazol-1-ylmethyl)-1,3-oxazolidin-2-one] | –
> 230 °C (dec.) | – | O=C(Cn1ccnc1)c1ccc(-c2ccc(N3C[C@H](Cn4ccnn4)OC3=O)cc2F)cn1 (as salt: hydrochloride) [Example 1, (5R)-3-{3-Fluoro-4-[6-(1H-imidazol-1-ylacetyl)pyridin-3-yl]phenyl}-5-(1H-1,2,3-triazol-1-ylmethyl)-1,3-oxazolidin-2-one] | –
– | > 5000 | O=C(Cn1ccnc1)c1ccc(-c2ccc(N3C[C@H](Cn4ccnn4)OC3=O)cc2F)cn1 [Example 1, (5R)-3-{3-Fluoro-4-[6-(1H-imidazol-1-ylacetyl)pyridin-3-yl]phenyl}-5-(1H-1,2,3-triazol-1-ylmethyl)-1,3-oxazolidin-2-one] | MIC (Haemophilus influenzae): 2 µg/mL (≈ 4.47 µM); MIC (Moraxella catarrhalis): 0.5 µg/mL (≈ 1.12 µM); MIC (Streptococcus pneumoniae): 0.13 µg/mL (≈ 0.291 µM); MIC [1]: 0.5 µg/mL (≈ 1.12 µM); MIC [2]: 0.25 µg/mL (≈ 0.559 µM); solubility (physchem): 1450 µM (≈ 650 µg/mL); MIC [3]: 0.25 µg/mL (≈ 0.559 µM)
> 196 °C (dec.) | – | O=C(CC1CCNCC1)c1ccc(-c2ccc(N3C[C@H](Cn4ccnn4)OC3=O)cc2F)cn1 (as salt: hydrochloride) [Example 6, (5R)-3-{3-Fluoro-4-[6(piperidin-4-ylacetyl)pyridin-3-yl]phenyl}-5-(1H-1,2,3-triazol-1-ylmethyl)-1,3-oxazolidin-2-one] | –
> 230 °C (dec.) | < 300 | O=C1O[C@@H](Cn2ccnn2)CN1c1ccc(-c2ccc(/C=N/O)nc2)c(F)c1 [Ref Example 3, 5-{2-Fluoro-4-[(5R)-2-oxo-5-(1H-1,2,3-triazol-1-ylmethyl)-1,3-oxazolidin-3-yl]phenyl}pyridine-2-carbaldehyde oxime] | –
> 275 °C (dec.) | – | O=C(c1ccc(-c2ccc(N3C[C@H](Cn4ccnn4)OC3=O)cc2F)cn1)C1CCNCC1 (as salt: hydrochloride) [Example 8, (5R)-3-{3-Fluoro-4-[6-(piperidin-4-ylcarbonyl)pyridin-3-yl]phenyl}-5-(1H-1,2,3-triazol-1-ylmethyl)-1,3-oxazolidin-2-one] | –
> 210 °C (dec.) | 720 | CC(=O)c1ccc(-c2ccc(N3C[C@H](Cn4ccnn4)OC3=O)cc2F)cn1 [Ref Example 1, (5R)-3-[4-(6-Acetylpyridin-3-yl)-3-fluorophenyl]-5-(1H-1,2,3-triazol-1-ylmethyl)-1,3-oxazolidin-2-one] | –
